Assay results as given in patent US20100190778A1, “3,4-DIHYDROBENZO[1,2,3]THIADIAZINE-1,1-DIOXIDE DERIVATIVES, PROCESS FOR PREPARATION THEREOF, MEDICAMENTS CONTAINING SAID DERIVATIVES AND THEIR USE” (EGIS GYOGYSZERGYAR NYILVANOSAN MUKODO RESZVENTARSASAG, priority 2006, published 2010).

CCC1NNS(=O)(=O)c2cc(Cl)ccc21 (centres unmarked) [Example 2, 4-Ethyl-7-chloro-3,4-dihydrobenzo[1,2,3]thiadiazine-1,1-dioxide]
melting point: 128 to 130 °C

CCC1NNS(=O)(=O)c2c1ccc(Cl)c2Cl (centres unmarked) [Example 4, 7,8-Dichloro-4-ethyl-3,4-dihydrobenzo[1,2,3]thiadiazine-1,1-dioxide]
melting point: 222 to 224 °C

Cc1cc2c(c(Cl)c1Cl)S(=O)(=O)NNC2C (centres unmarked) [Example 6, 7,8-Dichloro-4,6-dimethyl-3,4-dihydrobenzo[1,2,3]thiadiazine-1,1-dioxide]
melting point: 253 to 254 °C

CC1NNS(=O)(=O)c2c(Cl)cccc21 (centres unmarked) [Example 7, 8-chloro-4-methyl-3,4-dihydrobenzo[1,2,3]thiadiazine-1,1-dioxide]
melting point: 202 to 203 °C

CC1NNS(=O)(=O)c2ccccc21 (centres unmarked) [Example 8, 4-Methyl-3,4-dihydrobenzo[1,2,3]thiadiazine-1,1-dioxide]
melting point: 150 to 152 °C

COc1ccc2c(c1Cl)S(=O)(=O)NNC2C (centres unmarked) [Example 9, 8-chloro-4-methyl-7-methoxy-3,4-dihydrobenzo[1,2,3]thiadiazine-1,1-dioxide]
melting point: 231 to 233 °C

COc1ccc2c(c1OC)S(=O)(=O)NNC2C (centres unmarked) [Example 10, 7,8-Dimethoxy-4-methyl-3,4-dihydrobenzo[1,2,3]thiadiazine-1,1-dioxide]
melting point: 211 to 213 °C

COc1cccc2c1S(=O)(=O)NNC2C (centres unmarked) [Example 11, 4-Methyl-8-methoxy-3,4-dihydrobenzo[1,2,3]thiadiazine-1,1-dioxide]
melting point: 231 to 233 °C

COc1ccc2c(c1)CNNS2(=O)=O [Example 13, 6-Methoxy-3,4-dihydrobenzo[1,2,3]thiadiazine-1,1-dioxide]
melting point: 181 to 182 °C

O=S1(=O)NNCc2ccccc21 [Example 14, 3,4-Dihydrobenzo[1,2,3]thiadiazine-1,1-dioxide]
melting point: 134 to 136 °C

COc1ccc2c(c1Cl)S(=O)(=O)NNC2 [Example 15, 8-chloro-7-methoxy-3,4-dihydrobenzo[1,2,3]thiadiazine-1,1-dioxide]
melting point: 209 to 210 °C

CCC1NN(C)S(=O)(=O)c2c1ccc(Cl)c2Cl (centres unmarked) [Example 17, 7,8-Dichloro-4-ethyl-2-methyl-3,4-dihydrobenzo[1,2,3]thiadiazine-1,1-dioxide]
melting point: 139 to 141 °C

Cc1cc(Cl)c(Cl)c2c1C(C)NN(C)S2(=O)=O (centres unmarked) [Example 18, 7,8-Dichloro-2,4,5-trimethyl-3,4-dihydrobenzo[1,2,3]thiadiazine-1,1-dioxide]
melting point: 101 to 102 °C

COc1ccc2c(c1Cl)S(=O)(=O)N(C)NC2C (centres unmarked) [Example 19, 2,4-Dimethyl-8-chloro-7-methoxy-3,4-dihydrobenzo[1,2,3]thiadiazine-1,1-dioxide]
melting point: 141 to 143 °C

CCN1NC(C)c2ccc(Cl)c(Cl)c2S1(=O)=O (centres unmarked) [Example 21, 7,8-Dichloro-2-ethyl-4-methyl-3,4-dihydrobenzo[1,2,3]thiadiazine-1,1-dioxide]
melting point: 135 to 136 °C

CCC1NN(CC)S(=O)(=O)c2c1ccc(Cl)c2Cl (centres unmarked) [Example 22, 2,4-Diethyl-7,8-dichloro-3,4-dihydrobenzo[1,2,3]thiadiazine-1,1-dioxide]
melting point: 118 to 120 °C

CC1NN(C)S(=O)(=O)c2c(Cl)cccc21 (centres unmarked) [Example 23, 2,4-Dimethyl-8-chloro-3,4-dihydrobenzo[1,2,3]thiadiazine-1,1-dioxide]
melting point: 128 to 130 °C

CCN1NC(C)c2cccc(Cl)c2S1(=O)=O (centres unmarked) [Example 24, 2-Ethyl-8-chloro-4-methyl-3,4-dihydrobenzo[1,2,3]thiadiazine-1,1-dioxide]
melting point: 79 to 80 °C

Cc1cc2c(c(Cl)c1Cl)S(=O)(=O)N(C)NC2C (centres unmarked) [Example 25, 7,8-Dichloro-2,4,6-trimethyl-3,4-dihydrobenzo[1,2,3]thiadiazine-1,1-dioxide]
melting point: 141 to 142 °C

CC1c2ccc(Cl)c(Cl)c2S(=O)(=O)NN1C (centres unmarked) [Example 26, 7,8-Dichloro-3,4-dimethyl-3,4-dihydrobenzo[1,2,3]thiadiazine-1,1-dioxide]
melting point: 194 to 195 °C

CCN1NS(=O)(=O)c2c(ccc(Cl)c2Cl)C1C (centres unmarked) [Example 27, 7,8-Dichloro-3-ethyl-4-methyl-3,4-dihydrobenzo[1,2,3]thiadiazine-1,1-dioxide]
melting point: 172 to 174 °C

CCCN1NS(=O)(=O)c2c(ccc(Cl)c2Cl)C1C (centres unmarked) [Example 28, 7,8-Dichloro-4-methyl-3-propyl-3,4-dihydrobenzo[1,2,3]thiadiazine-1,1-dioxide]
melting point: 164 to 165 °C

CCC1c2ccc(Cl)cc2S(=O)(=O)NN1CC (centres unmarked) [Example 29, 3,4-Diethyl-7-chloro-3,4-dihydrobenzo[1,2,3]thiadiazine-1,1-dioxide]
melting point: 109 to 111 °C

CCC1c2ccc(Cl)cc2S(=O)(=O)NN1C(C)C (centres unmarked) [Example 30, 4-Ethyl-3-isopropyl-7-chloro-3,4-dihydrobenzo[1,2,3]thia diazine-1,1-dioxide]
melting point: 99 to 101 °C

Cc1cc(Cl)c(Cl)c2c1C(C)N(C)NS2(=O)=O (centres unmarked) [Example 31, 7,8-Dichloro-3,4,5-trimethyl-3,4-dihydrobenzo[1,2,3]thiadiazine-1,1-dioxide]
melting point: 236 to 238 °C

CN1Cc2ccccc2S(=O)(=O)N1 [Example 32, 3-Methyl-3,4-dihydrobenzo[1,2,3]thiadiazine-1,1-dioxide]
melting point: 176 to 178 °C

CCN1Cc2ccccc2S(=O)(=O)N1 [Example 33, 3-Ethyl-3,4-dihydrobenzo[1,2,3]thiadiazine-1,1-dioxide]
melting point: 146 to 147 °C

COc1ccc2c(c1)CN(C)NS2(=O)=O [Example 34, 3-Methyl-6-methoxy-3,4-dihydrobenzo[1,2,3]thiadiazine-1,1-dioxide]
melting point: 186 to 187 °C

CCN1Cc2cc(OC)ccc2S(=O)(=O)N1 [Example 35, 3-Ethyl-6-methoxy-3,4-dihydrobenzo[1,2,3]thiadiazine-1,1-dioxide]
melting point: 180 to 181 °C

CN1Cc2ccc(Cl)c(Cl)c2S(=O)(=O)N1 [Example 36, 7,8-Dichloro-3-methyl-3,4-dihydrobenzo[1,2,3]thiadiazine-1,1-dioxide]
melting point: 189 to 190 °C

CN1Cc2ccc(Cl)cc2S(=O)(=O)N1 [Example 37, 7-chloro-3-methyl-3,4-dihydrobenzo[1,2,3]thiadiazine-1,1-dioxide]
melting point: 188 to 189 °C

Cc1cc(Cl)c(Cl)c2c1C(C)N(C(C)C)NS2(=O)=O (centres unmarked) [Example 38, 7,8-Dichloro-4,5-dimethyl-3-isopropyl-3,4-dihydrobenzo[1,2,3]thiadiazine-1,1-dioxide]
melting point: 167 to 168 °C

COc1ccc2c(c1)CN(C)N(C)S2(=O)=O [Example 39, 2,3-Dimethyl-6-methoxy-3,4-dihydrobenzo[1,2,3]thiadiazine-1,1-dioxide]
melting point: 142 to 143 °C

CCN1Cc2cc(OC)ccc2S(=O)(=O)N1C [Example 40, 3-Ethyl-2-methyl-6-methoxy-3,4-dihydrobenzo[1,2,3]thiadiazine-1,1-dioxide]
melting point: 123 to 125 °C

CN1Cc2ccccc2S(=O)(=O)N1C [Example 41, 2,3-Dimethyl-3,4-dihydrobenzo[1,2,3]thiadiazine-1,1-dioxide]
melting point: 143 to 145 °C
